Experimental data reported in patent US8372880B2, “Compositions and methods using same for treating amyloid-associated diseases” (Tel Aviv University Future Technology Development L.P., priority 2003, dated 2013).
“And” between values parts separate entries of the source, which are not always exact repeats. Equal entries are not always repeated. Where two headings read alike, the source gives them in different places. Values belong to the compound of their own block, whether it stands above or below them.

Key:
Caco-2 cells [1] = details: for recovery at experiment end point: 90 minutes
Method: Cells at passage 68 were used in these studies. Caco-2 cells were grown in high D-glucose DMEM medium supplemented with 1% L-glutamine, 1% nonessential amino acids, 1% sodium pyruvate, 1% penicillinstreptomycin and 10% fetal bovine serum.
Cells (passage 68) were harvested after 95% confluence and seeded at a density of 85,000 cells per polycarbonate membranes (0.4 μm pore size and a surface area of 0.33 cm^2) inserts. Cells on inserts were cultured for 10 days.
Transport studies: Test substances transport across Caco-2 monolayers was investigated in ‘apical to basolateral’ direction (n=2), at two time points (45 and 90 minutes).
Prior to the experiment, the culture medium was removed; cells were washed twice with 150 μl apical buffer and 600 μl basolateral buffer (containing 25 mM D-glucose, 20 mM HEPES biological buffer, 1.25 mM CaCl2, 0.5 mM MgCl2, adjusted to pH 7.4 with KOH) and were incubated for 30 minutes at 37° C., 45 RPM, with the same buffers.
Transport studies were performed at 37° C., with shaking at 45 RPM with either the tested compounds or standards (n=2). At each time point, aliquot of 120 μl Basolateral sample was drawn from each insert. For the radioactive marker Mannitol, 20 μl duplicate aliquots were drawn at each time point. […] At endpoint (90 minutes), the whole volume of the apical and basolateral chambers was collected.
Data Recording: Substance samples and propranolol standard samples were analyzed using HPLC (see below for analyses details). [^3H]-Mannitol samples were subjected to analysis by liquid scintillation counting in a Packard TopCount NXT. The results were obtained in CPM.
Papp Calculations: Apparent permeability coefficients (Papp) of tested compounds and standards were calculated from the following equation: Papp(t)=(CtV/t)×(1/C0A) where C0 is the initial concentration (at t=0) of the compound on the donor (apical side); Ct is the concentration at the calculated time point (t) in the receiver (basolateral) chamber; V is receiver chamber volume; A is the surface area of the monolayer; and t is the elapsed time.
Compound and standards Recovery: At the last time point of the experiment (90 minutes), basolateral and apical amounts values were measured and recovery (%) of the tested compound or standard was calculated according to the following equation: Recovery %=(C90 min×Vbasolateral)+(C90 min×Vapical)/C0×Vapical
HPLC analyses: HPLC analyses were performed using a Waters 2790 HPLC system, equipped with PDA 996 detector (Waters).

hIAPP1-37 = molecular target: T1, hIAPP1-37 (Homo sapiens, UniProt P10997); experiment: Thioflavin T fluorescence assay of fibril formation; format: biochemical
T1 construct: purchased Calbiochem (CalBiochem Calif., USA); host or cells: solid-phase chemical synthesis
T1 sequence (P10997 34-70 limits assumed): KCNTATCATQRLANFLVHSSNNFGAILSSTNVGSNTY
Method: Fibrillization of hIAPP1-37 was monitored by Thioflavin T dye binding assay. hIAPP1-37 stock solution was diluted to a final concentration of 4 μM in 10 mM sodium acetate buffer (pH 6.5) with or without inhibitor, and a final HFIP concentration of 1% (vol). […] In every measurement ThT was added to a final concentration of 3 μM and measurements were carried out using Perkin Elmer (excitation 450 nm, 2.5 nm slit; emission 480 nm 10 nm slit). […] Background was subtracted from all samples.
Thioflavin T (ThT) is commonly used for detecting the level of amyloid formation. hIAPP1-37 solution was prepared as described above. Following incubation in the presence or absence of phenol red and addition of 3 μM ThT to each sample, fluorescence was measured.
Fibrillization of hIAPP1-37 was monitored by Thioflavin T (ThT) dye binding assay, as described above, using an inhibitor concentration of 40 μM or 4 μM.

Caco-2 cells [2] = system: Caco-2 cells
Method: LDH Assay: 100 μl of cells supernatant were removed from the basolateral chamber at the end of transport experiment. LDH release was assayed according to the manufacturer instructions using cytotoxicity detection kit (Roche, Cat. No. 1 644 793).
Specifically, an increase in the amount of dead or plasma membrane-damaged cells results in release of lactate dehydrogenase (LDH) enzyme to the surrounding buffer. The enzymatic activity of LDH is measured in a colorimetric assay. A surfactant that damages cell membranes is used as a positive control.
Short term damage—LDH Release: LDH activity in basolateral buffer from inserts of each group (n=2) was measured in a colorimetric assay as described hereinabove. The positive control glycocholate was previously assayed and is shown for comparison.

βTC-tet cells = experiment: MTT cell viability assay, hIAPP cytotoxicity; format: cell-based, murine; details: 4 μM hIAPP1-37, 24 hrs, phenol red in medium, 50% without phenol red
Method: βTC-tet cells [Fleischer, N., Chen C., Surana, M., Leiser, M., Rossetti, L., Pralong, W. and Efrat, S. (1998) Functional analysis of a conditionally transformed pancreatic beta-cell line, Diabetes 47, 1419-1425] or PC12 cells (ATCC # CRL-1721) were plated on 24-well plates (2-10^5/well) or on 96-well plates (1-10^4/well) respectively, and allowed to adhere for 24 hours. Synthetic hIAPP1-37 stock solution was diluted to a final concentration of 4 μM in serum free growth medium [Fleischer (1998) Supra] containing DMEM with or without phenol red. Immediately following dilution, samples were centrifuged at 4° C. for 20 minutes at 20,000 g, and the supernatant was bubbled with nitrogen for 30 min to evaporate residual HFIP. Cells were washed twice with PBS and incubated with the supernatant for 24 hrs. MTT (Sigma M-2128) was then added for 3 hrs, followed by addition of lysis buffer and incubation over night. Assay was effected according to Manufacturer's instructions. Samples were read at 570 nm. Cell viability was calculated in comparison to cells incubated in the absence of hIAPP in medium with or without phenol red, respectively.
The ability of phenol red to modulate cytotoxicity effect of hIAPP amyloid assemblies on pancreatic β cells in culture was addressed. […]

hIAPP20-29 [3] = molecular target: T2, hIAPP20-29 (Homo sapiens, UniProt P10997); experiment: Kinetic aggregation assay (turbidity); format: biochemical; details: 1 mM peptide, 40 mM inhibitor, Tris pH 7.2, 4% DMSO
T2 construct: purchased Peptron, Inc. (Taejeon, Korea); host or cells: solid-phase chemical synthesis
Method: Stock solutions of hIAPP22-29 and hIAPP20-29 peptide were prepared by dilution of lyophilized peptides into 10 mM Tris-HCl (pH 7.2) buffer to a final concentration of 1 mM peptide and 4% DMSO. Turbidity data were collected at 405 or 560 nm at room temperature. A buffer solution containing the same amount of DMSO as the tested samples was used as blank. Turbidity was measured using disposable UVette cuvettes (Eppendorf, Germany) and a Scinco S-3100 spectrophotometer.
The core amyloidogenic fragments of hIAPP (hIAPP22-29, hIAPP20-29) aggregate in an aqueous solution. Such an aggregation behavior was served as a preliminary assay for amyloid formation.
In order to evaluate the ability of phenol red to inhibit amyloid formation, the aggregation of 1 mM hIAPP22-29 and hIAPP20-29 (SEQ ID NO: 1 and NO: 2, respectively) was examined in the absence or presence of 40 mM phenol red. To verify the specificity of phenol red molecule towards hIAPP core peptides, a very similar molecule—phenolphthaleine, which differs only by the lack of the sulfon group, was used as control (FIG. 7).

hIAPP20-29 [4] = molecular target: T2, hIAPP20-29; experiment: Transmission electron microscopy of fibrils; format: biochemical; details: hIAPP20-29 with inhibitor, 24 hr incubation
Method: 10 μL samples of hIAPP22-29 or hIAPP20-29 from the aggregation assay, and hIAPP1-37 from the fluorescence assay were placed on 400-mesh copper grids (SPI supplies, West Chester Pa.) covered by carbon-stabilized Formvar film. After 1 minute, excess fluid was removed, and the grids were negatively stained with 2% uranyl acetate in water for another two minutes. Samples were viewed in a JEOL 1200EX electron microscope operating at 80 kV.
Samples of hIAPP22-29 and hIAPP20-29 taken from the aggregation assay (described in Example 3) were visualized using transmission electron microscopy. As is shown in FIG. 4a, distinct and well-defined amyloid fibers were observed 3 and 72 hours after initiation of aggregation in both samples of the hIAPP22-29 peptide, with a minor increase in fiber density and width following 72 hours. […] Same results were obtained with the hIAPP20-29 peptide after 24 hr incubation (FIG. 4b) in the presence of phenol red inhibitor. No inhibition was observed using phenolphthaleine under the same conditions and fibrillar structures were evident on the TEM grid.

[5] = Pharmacokinetics in mice, intravenous administration; details: for PF3 Concentration / Phenol red Concentration, Analyzed: mice plasma
Method: (§1) Male mice (ICR), 5 weeks of age, weighing 27-32 grams at study initiation were used. A total of sixteen animals were tested in each set of experiments, divided to 8 groups, 2 animals in each group. Animals were acclimatized for 5-7 days. All test animals was kept under environmental controlled housing conditions throughout the entire study period, and maintained in accordance with Harlan Biotech Israel (HBI) approved standard operation procedures (SOP's).
A single slow intravenous injection (over a period of approximately one minute) was administered into one of the tail veins of each animal.
Dosing solutions were prepared in a co-solvent vehicle system containing DMA:PEG400:Saline 25:40:35 respectively (e.g., each 1 ml consists of 0.25 ml DMA, 0.4ml PEG400 and 0.35 ml Saline).
Dosing solutions were freshly and identically prepared prior to dosing, as deemed necessary.
Blood samples were taken at the following time points: pre-dosing (time 0), 5, 15, 30, 60, 90, 120 and 300 minutes post dosing, two animals per time point, by retro orbital sinus bleeding under CO2 anesthesia. Individual blood samples of at least 0.4 ml whole blood were collected into pre-labeled lithium heparin coated tubes. Plasma separation was made as soon as possible after collection, by centrifugation at 2500G for 15 minutes. After centrifugation supernatant was transferred to eppendorff tube (1.5 ml) pre-labeled with the appropriate animal number, study number and time post dosing. Plasma samples were kept at about −20° C.
(§2) Analysis was performed in Analyst Ltd., using LC/MS/MS method.
(§3) The chromatographic separation was achieved on a Gemini C1 8 column (50×2.0 mm, 5 μm), using 50:50 acetonitrile:water solution containing 0.1% NH4OH as the mobile phase, at a flow rate of 0.3 ml/minute.
(§4) All samples were analyzed by the Micromass Quattro Pt triple-quadrupole mass selective detector equipped with an electrospray ionization source. […] The system includes a 2795 HT Waters HPLC and Masslynx v.4.0 software. Quanlynx v.4.0 software was used for calculation.
(§5) For calculation of phenol red concentration in samples, weighted linear regression curves (1/x^2) were calculated from response of analyte versus calibration standard concentration. The weighted linear regression correlation coefficient was grater than 0.99.
(§6) K Parameters Calculations: PK parameters were calculated using Winnonlin Pro 4.01 software (Pharsight).

[6] = Pharmacokinetics in mice, oral administration
Method: as §1
Administration to test animals was performed orally, following food deprivation of about 3.5-5 hours, by the use of gavage needle made of stainless steel which was introduced directly to the stomach.
Dosing solutions were prepared as described hereinabove for the I.V. administration.
Blood samples were taken, as described hereinabove, at the following time points: 30, 45, 60, 120, 180, 240, 300 and 360 minutes post dosing, two animals per time point, by retro orbital sinus bleeding under CO2 anesthesia.
as §2, §3, §4, §5, §6

[7] = 4 μM hIAPP1-37, 40 μM inhibitor
[8] = I.V. PF3, 5 minutes post dosing
[9] = I.V. PF3, 15 minutes post dosing
[10] = I.V. PF3, 30 minutes post dosing
[11] = I.V. PF3, 60 minutes post dosing
[12] = I.V. PF3, 125 minutes post dosing
[13] = I.V. PF3, 300 minutes post dosing
[14] = phenol red plasma profile, mice, I.V. PF3
[15] = phenol red plasma profile, mice, I.V. PF3 .25 mg/kg

Compound: COc1ccc(C2(c3ccc(OC)cc3)OS(=O)(=O)c3ccccc32)cc1 [PF4, dimethoxy phenol red]
recovery at experiment end point (Caco-2 cells [1]; 0.2 mM concentration): 105%±31%
recovery at experiment end point (Caco-2 cells [1]; 1 mM concentration): 123%±48%
detection at the basolateral chamber (Caco-2 cells [1]; both tested concentrations): not detected
inhibition of hIAPP1-37 fibril formation (ThT fluorescence) (hIAPP1-37; [7]): reduced inhibition effect relatively to the phenol red molecule
inhibition of hIAPP1-37 fibril formation (ThT fluorescence) (hIAPP1-37; 40 μM inhibitor, sample not centrifuged): more evident
cytotoxicity (LDH activity in basolateral buffer) (Caco-2 cells [2]; CaCo-2 inserts after transport experiment): negligible

inhibition of hIAPP1-37 fibril formation (ThT fluorescence) (hIAPP1-37; green tea polyphenols experiment, 48 hr to 12 days): inhibitory effect
Compound: Nc1c(/N=N/c2ccc(-c3ccc(/N=N/c4cc(S(=O)(=O)O)c5ccccc5c4N)cc3)cc2)cc(S(=O)(=O)O)c2ccccc12 [congo red, Congo red, reference compound]

IC50 (hIAPP1-37; 4 μM hIAPP1-37, gradual concentration of phenol red, read-out: IC50 of inhibition of fibril formation (ThT fluorescence)): ~2500 nM
inhibition level of fibril formation (ThT end point) (hIAPP1-37; phenol red concentration of 20 μM and above, after one week of incubation): about 90%
Compound: O=S1(=O)OC(c2ccc(O)cc2)(c2ccc(O)cc2)c2ccccc21 [phenol red]
cell viability (MTT) (βTC-tet cells): 80%

aggregation of hIAPP20-29 (turbidity) (hIAPP20-29 [3]): No inhibition effect
fibril morphology by TEM (hIAPP20-29 [4]): No inhibition
fibril morphology by TEM (hIAPP20-29 [4]; listed as phenolephthaleine): no inhibition effect
Compound: O=C1OC(c2ccc(O)cc2)(c2ccc(O)cc2)c2ccccc21 [phenolphthaleine]

Compound: diacetoxy phenol red [PF3]
PF3 Concentration [5, 8]: n/d (not detected and denotes a concentration lower than 5 ng/ml)
Phenol red Concentration, Analyzed [5, 8]: >20 µg/mL
PF3 Concentration [5, 9]: n/d (not detected and denotes a concentration lower than 5 ng/ml)
Phenol red Concentration, Analyzed [5, 9]: >20 µg/mL
PF3 Concentration [5, 10]: n/d (not detected and denotes a concentration lower than 5 ng/ml)
Phenol red Concentration, Analyzed [5, 10]: >20 µg/mL
PF3 Concentration [5, 11]: n/d (not detected and denotes a concentration lower than 5 ng/ml)
Phenol red Concentration, Analyzed [5, 11]: 4.12 µg/mL and 4.33 µg/mL
PF3 Concentration ([5]; I.V. PF3, 90 minutes post dosing): n/d (not detected and denotes a concentration lower than 5 ng/ml)
PF3 Concentration [5, 12]: n/d (not detected and denotes a concentration lower than 5 ng/ml)
Phenol red Concentration, Analyzed [5, 12]: 0.76 µg/mL
PF3 Concentration [5, 13]: n/d (not detected and denotes a concentration lower than 5 ng/ml)
Phenol red Concentration, Analyzed [5, 13]: 0.22 µg/mL and 0.29 µg/mL
presence of the pro-drug PF3 in plasma ([5]; mice, following I.V. administration, even after 5 minutes): not observed
AUC (area under the curve) [5, 14]: 2232 µg·min/mL
Volume of distribution (Vss) [5, 14]: 0.367 L/kg
Clearance [5, 15]: 11 mL/min/kg
Half Life [5, 15]: 40 min
presence of the pro-drug PF3 in plasma ([6]; following oral administration): not detected
intestinal absorption ([6]; oral administration): clearly absorbed in the intestine
Half Life ([6]; phenol red plasma profile, P.O. PF3 […]): 32 min
F, Bioavailability ([6]; phenol red plasma profile, P.O. PF3 […] vs I.V.): 16%
recovery at experiment end point (Caco-2 cells [1]; 1 mM concentration): 53%±5%
permeability grading (Caco-2 cells [1]; CaCo-2, apical to basolateral): low-medium range
Papp values compared to standards (Caco-2 cells [1]; apical to basolateral, 45 and 90 minutes): higher than mannitol (a marker of paracellular transport) Papp values and lower than propranolol
detection of transport (Caco-2 cells [1]; higher concentration (0.1 mM)): detected
detection in the basolateral chamber (Caco-2 cells [1]; lower concentration (0.02 mM), 45 and 90 minutes): not detected
inhibition of hIAPP1-37 fibril formation (ThT fluorescence) (hIAPP1-37; [7]): reduced inhibition effect relatively to the phenol red molecule
LDH activity in basolateral buffer (Caco-2 cells [2]; 0.1 mM, only one of the inserts, not repeated, attributed to a factor other than PF3): increase in LDH activity was detected
